Results as given in PubChem BioAssay (NCI).
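Values below derive from 48-hour exposures of cells grown in 96-well plates, with endpoints linearly interpolated between the two concentrations bracketing the appropriate inhibition level. GI50 = concentration required for 50% inhibition of growth. At the TGI there is no net growth.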

Tests used:
Assay in all cases: inhibition of tumour cell growth, NCI panel, 48 h
[1] = tested on: SNB-19 CNS
[2] = tested on: HCT-116 colon
[3] = tested on: RPMI-8226 leukemia
[4] = tested on: EKVX NSCLC
[5] = tested on: HCT-15 colon
[6] = tested on: NCI-H23 lung
[7] = tested on: ACHN renal
[8] = tested on: SK-MEL-2 melanoma
[9] = tested on: HOP-92 NSCLC

| Compound | TGI [1] [µM] | TGI [2] [µM] | TGI [3] [µM] | TGI [4] [µM] | TGI [5] [µM] | TGI [6] [µM] | TGI [7] [µM] | TGI [8] [µM] | TGI [9] [µM] | GI50 [1] [µM] | GI50 [2] [µM] | GI50 [3] [µM] | GI50 [9] [µM] | GI50 [5] [µM] | GI50 [6] [µM] | GI50 [7] [µM] | GI50 [8] [µM] | GI50 [4] [µM] |
| --- | --- | --- | --- | --- | --- | --- | --- | --- | --- | --- | --- | --- | --- | --- | --- | --- | --- | --- |
| CC/C(=N/O)C(C)C(=O)CCC(=O)Nc1ccc(Cl)cc1 (configuration not stated) | > 100 | > 100 | > 100 | > 100 | > 100 | > 100 | > 100 | > 100 | – | – | – | – | – | – | – | – | – | – |
| CNC(=O)NCCCCC(NC(=O)OCc1ccccc1)C(=O)OCc1ccccc1 (configuration not stated) | > 100 | > 100 | 51.4 | > 100 | > 100 | 67.4 | 33.8 | 61.1 | 89.2 | – | – | – | – | – | – | – | – | – |
| COc1ccc(/C=C\c2cc(OC)c(OC)c(OC)c2)cc1N/C=C\C(=O)c1c[nH]c2ccccc12 | > 100 | 10.4 | 19.6 | – | > 100 | > 100 | > 100 | 20.3 | 3.64 | < 0.01 | < 0.01 | < 0.01 | 0.0137 | < 0.01 | < 0.01 | < 0.01 | < 0.01 | – |
| NC(CCSCCF)C(=O)O (configuration not stated) | > 100 | > 100 | > 100 | > 100 | > 100 | > 100 | > 100 | > 100 | > 100 | – | – | – | – | – | – | – | – | – |
| C=CC(=O)N1CCC(CNc2ncnc(N)c2-c2ccc(Oc3ccccc3)cc2)CC1 | > 100 | > 100 | 42.6 | > 100 | > 100 | > 100 | 70.7 | 42 | 65.1 | 32.8 | 30.1 | 15.1 | 18.8 | 26.6 | 29.8 | 23.4 | 19.3 | 24.1 |
| Cc1cccc(/C=N/N=C(\N)NO)n1 | – | > 100 | – | > 100 | – | > 100 | > 100 | > 100 | 98.3 | – | – | – | – | – | – | – | – | – |
| CC(C(=O)c1ccc(O)cc1)C1(O)C(=O)Nc2c(Cl)cc(Cl)cc21 (configuration not stated) | > 100 | > 100 | 71.5 | > 100 | > 100 | > 100 | 28.3 | > 100 | > 100 | – | – | – | – | – | – | – | – | – |
| COC(=O)c1ccc(N/C=C(/C#N)c2ccsc2)cc1 | 29.8 | 21.8 | > 100 | 31.4 | > 100 | 24.5 | 18.8 | 50.7 | – | – | – | – | – | – | – | – | – | – |
| COC(=O)CCC(=O)Nc1cc(C)ccc1C | > 100 | > 100 | > 100 | > 100 | – | > 100 | > 100 | > 100 | > 100 | – | – | – | – | – | – | – | – | – |
| C=CC(=O)OCCCS(=O)(=O)[O-].C=CC(=O)OCCCS(=O)(=O)[O-].NC1CCCCC1N.[Pt+4] | > 25 | > 25 | > 25 | > 25 | > 25 | > 25 | > 25 | > 25 | – | > 25 | > 25 | > 25 | – | > 25 | > 25 | > 25 | > 25 | > 25 |
| CCCCCCCCCCCc1cc(=O)c2c(O)cccc2o1 | > 100 | > 100 | > 100 | > 100 | > 100 | > 100 | > 100 | > 100 | > 100 | – | – | – | – | – | – | – | – | – |
| Nc1ccccc1-n1c2c(c3ccccc3c1=O)C(=O)c1ccccc1-2 | 23.8 | > 100 | > 100 | > 100 | > 100 | 51.1 | 18.3 | 52.8 | 53.6 | – | – | – | – | – | – | – | – | – |
| COc1ccccc1NC(=O)C1=C(C)NC(C)=C(C(=O)Nc2ccccc2OC)C1c1ccc(C2C(C(=O)Nc3ccccc3OC)=C(C)NC(C)=C2C(=O)Nc2ccccc2OC)cc1 | 12.5 | 2.7 | 8 | 6.91 | 7.49 | 7.52 | 10 | 5.77 | 9.45 | – | – | – | – | – | – | – | – | – |
| [N-]=[N+]=Nc1nnc(CCCCc2nnc(N=[N+]=[N-])o2)o1 | > 100 | > 100 | – | > 100 | > 100 | > 100 | > 100 | > 100 | > 100 | – | – | – | – | – | – | – | – | – |
| CCSc1nnc(-c2ccc3ccccc3c2O)n1-c1ccccc1 | – | – | – | – | > 100 | > 100 | – | – | 92.1 | – | – | – | 5 | 2.72 | > 100 | – | – | – |
| COc1cc2ccnc(-c3n[nH]c4cc(OC)c(OC)cc34)c2cc1OC | > 100 | > 100 | > 100 | > 100 | > 100 | > 100 | > 100 | > 100 | > 100 | – | – | – | – | – | – | – | – | – |
